Reference: ChEMBL document CHEMBL1201862, “PubChem BioAssay data set” (2004)
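1) Cells in 96-well plates. 2) Compound, 48 h, 5 concentrations. 3) Linear interpolation between surrounding doses. 4) Unreached endpoint = highest concentration. At the GI50, growth is halved.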 Activity calls are given as the source filed them. No stated cut-off is given here; in the data, active = GI50 up to about 1.1 µM and inactive = higher.

Columns and labels:
Experiment in all cases: NCI-60 cell line screen, 48 h
[1] = system: BT-549
[2] = system: DU-145
[3] = system: Hs-578T
[4] = system: MDA-MB-435
[5] = system: MDA-N
[6] = system: PC-3
[7] = system: T47D
[8] = system: SR

Measured: GI50

CCOC(=O)Cn1c(=O)c(C)cn(COCCO)c1=O
inactive: [1] > 100 µM | [2] > 100 µM | [3] > 100 µM | [4] > 100 µM | [5] > 100 µM | [6] > 100 µM | [7] > 100 µM

CCOC(=O)C1=C(C)N2CCCOC2(C)C(C(=O)OC)C1c1cccc([N+](=O)[O-])c1 (stereo not drawn)
inactive: [8] 35.2 µM
